Data reported in PMC3805573, “Methylglyoxal Evokes Pain by Stimulating TRPA1” (PLoS ONE, 2013).

Columns and labels:
untransfected CHO cells = test: [Ca2+]i in untransfected CHO cells; type: cell-based; settings: untransfected CHO cells or absence of extracellular Ca2+ (data not shown)
Procedure: (§1) Untransfected CHO cells and CHO cells expressing mouse or human TRPA1 were grown in MEM Glutamax or AQ medium supplemented with penicillin (100 U/ml), streptomycin (100 µg/ml), and FCS (10%). Plasmids encoding mutated TRPA1 channels were kindly provided by Dr. Ardem Patapoutian. All media, serum and antibiotics were from Invitrogen (Paisley, UK) or Sigma (Poole, UK).
(§2) Cells were loaded with 2 µM Fura-2 AM (Molecular Probes, Paisley, UK) in the presence of 1 mM probenecid for ∼1 hr. The experiments were performed in a physiological saline solution containing (in mM) 140 NaCl, 5 KCl, 10 glucose, 10 HEPES, 2 CaCl2, and 1 MgCl2, buffered to pH 7.4 with NaOH. Compounds were applied to cells by local continuous microperfusion of solution through a fine tube placed in close proximity of the cells studied. Images of a group of cells were captured every 2 sec using 340 and 380 nm excitation wavelengths with emission measured at 520 nm with a microscope based imaging system (PTI, New Jersey). […]
(§3) Changes in intracellular calcium ([Ca^2+]i) in response to agonists were determined in TRPA1 expressing CHO cells and MDCK cells using a Flexstation 3 (Molecular Devices). […] Basal emission ratios (340 nm/380 nm) were measured and changes in ratio determined at various times after compound addition.

DRG neurons [1] = test: Voltage clamp recordings of DRG neurons; type: cell-based, mice; settings: -60 mV, 15 µM Ca2+, a proportion of neurons
Procedure: (§4) DRG neurons were prepared from adult male or female mice using methods described previously. Isolated neurons were maintained in MEM AQ (5.6 mM glucose) supplemented with 10% fetal bovine serum, 100 U/ml penicillin, 100 µg/ml streptomycin and 50 ng/ml NGF (Promega, Southampton, UK) for less than 24 hours before experimentation.
(§5) DRG neurons and TRPA1 CHO cells were studied under voltage-clamp conditions using an Axopatch 200B amplifier and pClamp 10.0 software (Molecular Devices, Sunnyvale, CA). Except where stated otherwise, whole cell recordings were performed at a holding potential of –60 mV using an extracellular solution with the composition described above for [Ca^2+]i measurements. Borosilicate glass pipettes (2–5 MΩ, 75–80% series resistance compensation) were filled with (in mM) 140 KCl, 1 CaCl2, 2 MgATP, 10 EGTA, and 10 HEPES buffered to pH 7.4 (KOH). Excised inside-out patches were recorded using a Ca^2+-free solution containing (in mM) 140 NaCl, 5 KCl, 1 MgCl2, 10 HEPES and 1 EGTA, pH 7.4 (NaOH) in the pipettes and perfused with 140 KCl, 2 MgATP, 1 EGTA, and 10 HEPES (pH 7.4). DRG neurons were studied using an intracellular solution containing (in mM) 140 CsCl, 1 CaCl2, 2 MgATP, 10 EGTA and 10 HEPES, pH 7.4 (CsOH). Drugs were applied by local microperfusion with a rapid solution changer (RSC-200, Biologic, Claix, France).

DRG neurons [2] = test: [Ca2+]i-responses in cultured DRG neurons; type: cell-based, mice
Procedure: as §4
(§6) Cells were loaded with 2 µM Fura-2 AM (Molecular Probes, Paisley, UK) in the presence of 1 mM probenecid for ∼1 hr. The experiments were performed in a physiological saline solution containing (in mM) 140 NaCl, 5 KCl, 10 glucose, 10 HEPES, 2 CaCl2, and 1 MgCl2, buffered to pH 7.4 with NaOH. Compounds were applied to cells by local continuous microperfusion of solution through a fine tube placed in close proximity of the cells studied. Images of a group of cells were captured every 2 sec using 340 and 380 nm excitation wavelengths with emission measured at 520 nm with a microscope based imaging system (PTI, New Jersey). Analyses of emission intensity ratios at 340 nm/380 nm excitation (R, in individual cells) were performed using the ImageMaster suite of software.

human TRPA1 = biological target: T1, human TRPA1 (Homo sapiens, UniProt O75762); test: [Ca2+]i-responses in CHO cells expressing human TRPA1; type: cell-based; settings: CHO cells expressing human TRPA1, extracellular application; read-out: EC50, increases in [Ca2+]i
T1 construct: expressed in transfected cells; host or cells: CHO cells
Procedure: as §1, §2, §3

mouse TRPA1 = biological target: T2, mouse TRPA1 (Mus musculus, UniProt Q8BLA8); test: [Ca2+]i-responses in CHO cells expressing mouse TRPA1; type: cell-based; settings: CHO cells expressing mouse TRPA1, extracellular application; read-out: EC50, increases in [Ca2+]i
T2 construct: expressed in transfected cells; host or cells: CHO cells
Procedure: as §1, §2, §3

mTRPA1 K712Q = biological target: T3, mTRPA1 K712Q (Mus musculus, UniProt Q8BLA8, K712Q); test: [Ca2+]i-responses of mTRPA1 K712Q in CHO cells; type: cell-based; settings: MG 2 mM
T3 construct: expressed in transfected cells; host or cells: CHO cells
Procedure: as §1, §6

TRPA1 = test: Whole cell voltage-clamp, TRPA1 CHO cells; type: cell-based; settings: MG 0.5 mM (Fig. 1B)
Procedure: as §5

beta cells = test: [Ca2+]i-responses in pancreatic beta cells; type: cell-based, mice; settings: MG 0.5 mM (Fig. 7A)
Procedure: Mouse islets of Langerhans were isolated from the exocrine pancreas by collagenase digestion (1 mg/ml, type XI, Sigma, Poole, UK). Islets were dissociated by 15 min incubation in trypsin (0.5%, Sigma, Poole, UK) followed by trituration through a flame polished glass Pasteur pipette and the islet cells were seeded on glass cover slips.
as §6

T1 sequence (O75762 whole entry): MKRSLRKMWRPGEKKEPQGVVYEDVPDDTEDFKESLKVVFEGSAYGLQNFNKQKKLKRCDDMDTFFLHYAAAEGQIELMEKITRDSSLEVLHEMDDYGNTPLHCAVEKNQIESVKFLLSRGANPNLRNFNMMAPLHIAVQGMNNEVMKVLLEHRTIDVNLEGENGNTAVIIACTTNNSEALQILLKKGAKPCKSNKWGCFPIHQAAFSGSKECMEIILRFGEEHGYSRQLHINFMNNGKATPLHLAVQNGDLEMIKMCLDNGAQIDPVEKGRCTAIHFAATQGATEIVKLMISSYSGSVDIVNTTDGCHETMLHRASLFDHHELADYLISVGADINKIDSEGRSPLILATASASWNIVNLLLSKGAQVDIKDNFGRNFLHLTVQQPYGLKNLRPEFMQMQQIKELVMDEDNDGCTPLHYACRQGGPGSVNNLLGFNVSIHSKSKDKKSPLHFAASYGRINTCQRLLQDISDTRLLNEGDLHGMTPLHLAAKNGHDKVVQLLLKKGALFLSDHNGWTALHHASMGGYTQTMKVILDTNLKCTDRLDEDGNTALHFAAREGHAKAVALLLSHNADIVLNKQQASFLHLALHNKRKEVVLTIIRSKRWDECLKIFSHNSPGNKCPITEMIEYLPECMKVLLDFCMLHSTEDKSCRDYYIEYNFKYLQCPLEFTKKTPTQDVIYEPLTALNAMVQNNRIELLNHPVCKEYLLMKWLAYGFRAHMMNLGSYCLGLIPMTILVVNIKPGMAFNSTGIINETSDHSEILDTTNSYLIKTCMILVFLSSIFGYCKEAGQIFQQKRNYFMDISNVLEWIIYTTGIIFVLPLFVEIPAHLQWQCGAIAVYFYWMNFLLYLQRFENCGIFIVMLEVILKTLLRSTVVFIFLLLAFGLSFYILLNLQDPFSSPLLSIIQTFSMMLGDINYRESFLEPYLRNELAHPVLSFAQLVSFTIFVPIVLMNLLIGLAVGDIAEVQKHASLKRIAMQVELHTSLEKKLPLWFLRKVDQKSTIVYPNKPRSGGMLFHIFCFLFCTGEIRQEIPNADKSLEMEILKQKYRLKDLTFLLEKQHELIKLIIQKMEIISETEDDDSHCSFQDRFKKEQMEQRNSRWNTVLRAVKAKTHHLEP
T2 sequence (Q8BLA8 whole entry): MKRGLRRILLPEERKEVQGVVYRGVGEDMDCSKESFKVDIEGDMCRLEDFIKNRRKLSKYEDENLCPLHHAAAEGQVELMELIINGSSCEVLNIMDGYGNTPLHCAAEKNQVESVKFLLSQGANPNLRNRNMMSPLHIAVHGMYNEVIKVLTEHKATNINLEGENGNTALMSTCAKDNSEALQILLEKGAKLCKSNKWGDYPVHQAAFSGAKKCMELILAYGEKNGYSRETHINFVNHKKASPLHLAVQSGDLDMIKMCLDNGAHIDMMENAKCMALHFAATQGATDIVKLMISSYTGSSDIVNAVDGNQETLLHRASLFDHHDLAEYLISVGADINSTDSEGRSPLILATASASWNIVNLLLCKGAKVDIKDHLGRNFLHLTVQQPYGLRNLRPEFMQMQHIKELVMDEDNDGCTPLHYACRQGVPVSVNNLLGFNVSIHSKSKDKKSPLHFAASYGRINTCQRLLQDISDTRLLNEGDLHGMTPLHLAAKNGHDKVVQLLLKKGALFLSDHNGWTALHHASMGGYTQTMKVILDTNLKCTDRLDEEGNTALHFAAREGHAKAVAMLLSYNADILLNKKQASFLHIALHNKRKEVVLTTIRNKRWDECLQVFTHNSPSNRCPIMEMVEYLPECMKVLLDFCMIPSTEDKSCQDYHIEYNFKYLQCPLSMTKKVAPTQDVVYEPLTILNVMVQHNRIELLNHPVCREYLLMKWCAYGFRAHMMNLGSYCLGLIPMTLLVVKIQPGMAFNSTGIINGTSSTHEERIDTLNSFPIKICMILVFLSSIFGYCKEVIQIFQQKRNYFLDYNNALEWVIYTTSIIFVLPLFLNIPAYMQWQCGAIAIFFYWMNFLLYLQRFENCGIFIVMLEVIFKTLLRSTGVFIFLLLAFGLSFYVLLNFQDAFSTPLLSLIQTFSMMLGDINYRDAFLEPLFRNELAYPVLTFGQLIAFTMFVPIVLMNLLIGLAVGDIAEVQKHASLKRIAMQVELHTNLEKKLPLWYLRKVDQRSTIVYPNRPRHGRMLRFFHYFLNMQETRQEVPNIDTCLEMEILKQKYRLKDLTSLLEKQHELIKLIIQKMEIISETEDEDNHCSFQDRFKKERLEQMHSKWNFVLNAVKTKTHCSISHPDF
T3 sequence (Q8BLA8 whole entry K712Q): as the sequence (Q8BLA8 whole entry) above, with K712Q counted along it

EC50 (human TRPA1): 700 ± 200 µM
EC50 (mouse TRPA1): 900 ± 100 µM
amplitude of [Ca2+]i-responses in mTRPA1 K712Q compared to WT mTRPA1 (mTRPA1 K712Q): significantly reduced
Structure (SMILES): CC(=O)C=O [MG, methylglyoxal]
effect on [Ca2+]i (untransfected CHO cells): had no effect
current in DRG neurons (DRG neurons [1]): evoked robust inward currents
capsaicin-sensitive DRG neurons with [Ca2+]i-responses (DRG neurons [2]; neurons from Trpa1+/+ mice (240 of 333)): 72%
DRG neurons with [Ca2+]i-responses (DRG neurons [2]; neurons from Trpa1-/- mice (1 of 322)): 0%
whole cell current (TRPA1): produced inward currents
[Ca2+]i-responses in beta cells (beta cells): evoked [Ca^2+]i-responses in a subpopulation of tolbutamide sensitive beta cells
number of MG sensitive cells and response amplitude, Trpa1+/+ vs Trpa1-/- cultures (beta cells): similar
